From patent US20200030236A1, “BIOPATCH, BIOHEATER, BIOSENSOR AND BIOELECTRONIC PATCH DEVICE” (SEOUL NATIONAL UNIVERSITY R&DB FOUNDATION, priority 2016, published 2020)

Test system: brain tumors
Experiment: Size change in brain tumor and survival rate in rats having brain tumors
Type: in vivo
Conditions: (a) drug injected by intravenous injection, rats (FIGS. 27, 28)
From the text: FIGS. 27 to 29 show the result of comparing the size change in brain tumor and the survival rate according to four treatment methods applied to rats having brain tumors.

Q: With COc1cccc2c1C(=O)c1c(O)c3c(c(O)c1C2=O)C[C@@](O)(C(=O)CO)C[C@@H]3O[C@H]1C[C@H](N)[C@H](O)[C@H](C)O1 [drug, doxorubicin] as the compound, how does the “size change in brain tumor” value read?
A: Its value is “rapidly increases with time”.
